# Data: PubChem BioAssay (NCI)
#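 Dose response: 5 concentrations. Exposure: 48 h. Format: 96-well plates. Endpoint: linear interpolation; highest concentration if not reached. The concentration for 50% growth inhibition is given as GI50. Definition used: TGI = concentration required for complete inhibition of growth.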
# Tests used:
# Experiment in all cases: NCI anticancer screen, dose series, 48 h
# 786-0 renal = tested on: 786-0 renal
# A498 renal = tested on: A498 renal
# A549 NSCLC = tested on: A549 NSCLC
# ACHN renal = tested on: ACHN renal
# BT-549 breast = tested on: BT-549 breast
# CAKI-1 renal = tested on: CAKI-1 renal
# CCRF-CEM leukemia = tested on: CCRF-CEM leukemia
# COLO 205 colon = tested on: COLO 205 colon
# DU-145 prostate = tested on: DU-145 prostate
# EKVX NSCLC = tested on: EKVX NSCLC
# HCC-2998 colon = tested on: HCC-2998 colon
# HCT-116 colon = tested on: HCT-116 colon
# HCT-15 colon = tested on: HCT-15 colon
# HL-60(TB) leukemia = tested on: HL-60(TB) leukemia
# HOP-62 NSCLC = tested on: HOP-62 NSCLC
# HOP-92 NSCLC = tested on: HOP-92 NSCLC
# HS 578T breast = tested on: HS 578T breast
# HT29 colon = tested on: HT29 colon
# IGROV1 ovarian = tested on: IGROV1 ovarian
# K-562 leukemia = tested on: K-562 leukemia
# KM12 colon = tested on: KM12 colon
# LOX IMVI melanoma = tested on: LOX IMVI melanoma
# M14 melanoma = tested on: M14 melanoma
# MALME-3M melanoma = tested on: MALME-3M melanoma
# MCF7 breast = tested on: MCF7 breast
# MDA-MB-231 breast = tested on: MDA-MB-231 breast
# MDA-MB-435 = tested on: MDA-MB-435
# MDA-MB-468 breast = tested on: MDA-MB-468 breast
# MOLT-4 leukemia = tested on: MOLT-4 leukemia
# NCI-H226 lung = tested on: NCI-H226 lung
# NCI-H23 lung = tested on: NCI-H23 lung
# NCI-H460 lung = tested on: NCI-H460 lung
# NCI-H522 lung = tested on: NCI-H522 lung
# NCI/ADR-RES ovarian = tested on: NCI/ADR-RES ovarian
# OVCAR-3 ovarian = tested on: OVCAR-3 ovarian
# OVCAR-4 ovarian = tested on: OVCAR-4 ovarian
# OVCAR-5 ovarian = tested on: OVCAR-5 ovarian
# OVCAR-8 ovarian = tested on: OVCAR-8 ovarian
# PC-3 prostate = tested on: PC-3 prostate
# RPMI-8226 leukemia = tested on: RPMI-8226 leukemia
# RXF 393 renal = tested on: RXF 393 renal
# SF-268 CNS = tested on: SF-268 CNS
# SF-295 CNS = tested on: SF-295 CNS
# SF-539 CNS = tested on: SF-539 CNS
# SK-MEL-2 melanoma = tested on: SK-MEL-2 melanoma
# SK-MEL-28 melanoma = tested on: SK-MEL-28 melanoma
# SK-MEL-5 melanoma = tested on: SK-MEL-5 melanoma
# SK-OV-3 ovarian = tested on: SK-OV-3 ovarian
# SN12C renal = tested on: SN12C renal
# SNB-19 CNS = tested on: SNB-19 CNS
# SNB-75 CNS = tested on: SNB-75 CNS
# SR leukemia = tested on: SR leukemia
# SW-620 colon = tested on: SW-620 colon
# T-47D breast = tested on: T-47D breast
# TK-10 renal = tested on: TK-10 renal
# U251 CNS = tested on: U251 CNS
# UACC-257 melanoma = tested on: UACC-257 melanoma
# UACC-62 melanoma = tested on: UACC-62 melanoma
# UO-31 renal = tested on: UO-31 renal
smiles,measurement,setting,value
COc1ccc(C(C)=C(c2ccc(OCCCN(C)C)cc2)c2ccc(OCCCN(C)C)cc2)cc1,GI50,786-0 renal,491 nM
same,TGI,786-0 renal,1460 nM
same,GI50,A498 renal,2730 nM
same,TGI,A498 renal,5510 nM
same,GI50,A549 NSCLC,2990 nM
same,TGI,A549 NSCLC,7480 nM
same,GI50,ACHN renal,2620 nM
same,TGI,ACHN renal,5230 nM
same,GI50,BT-549 breast,3200 nM
same,TGI,BT-549 breast,6220 nM
same,GI50,CAKI-1 renal,2710 nM
same,TGI,CAKI-1 renal,5350 nM
same,GI50,CCRF-CEM leukemia,593 nM
same,TGI,CCRF-CEM leukemia,1960 nM
same,GI50,COLO 205 colon,799 nM
same,TGI,COLO 205 colon,3080 nM
same,GI50,DU-145 prostate,2100 nM
same,TGI,DU-145 prostate,4600 nM
same,GI50,EKVX NSCLC,2980 nM
same,TGI,EKVX NSCLC,5890 nM
same,GI50,HCC-2998 colon,2160 nM
same,TGI,HCC-2998 colon,4790 nM
same,GI50,HCT-116 colon,795 nM
same,TGI,HCT-116 colon,3210 nM
same,GI50,HCT-15 colon,1090 nM
same,TGI,HCT-15 colon,3790 nM
same,GI50,HL-60(TB) leukemia,735 nM
same,TGI,HL-60(TB) leukemia,3030 nM
same,GI50,HOP-62 NSCLC,3080 nM
same,TGI,HOP-62 NSCLC,6170 nM
same,GI50,HOP-92 NSCLC,1100 nM
same,TGI,HOP-92 NSCLC,4270 nM
same,GI50,HS 578T breast,2440 nM
same,TGI,HS 578T breast,6220 nM
same,GI50,HT29 colon,426 nM
same,TGI,HT29 colon,867 nM
same,GI50,IGROV1 ovarian,2960 nM
same,TGI,IGROV1 ovarian,5750 nM
same,GI50,K-562 leukemia,621 nM
same,TGI,K-562 leukemia,5040 nM
same,GI50,KM12 colon,2600 nM
same,TGI,KM12 colon,5500 nM
same,GI50,LOX IMVI melanoma,625 nM
same,TGI,LOX IMVI melanoma,2080 nM
same,GI50,M14 melanoma,427 nM
same,TGI,M14 melanoma,930 nM
same,GI50,MALME-3M melanoma,558 nM
same,TGI,MALME-3M melanoma,1890 nM
same,GI50,MCF7 breast,418 nM
same,TGI,MCF7 breast,3060 nM
same,GI50,MDA-MB-231 breast,1550 nM
same,TGI,MDA-MB-231 breast,4230 nM
same,GI50,MDA-MB-435,537 nM
same,TGI,MDA-MB-435,1830 nM
same,GI50,MDA-MB-468 breast,705 nM
same,TGI,MDA-MB-468 breast,3010 nM
same,GI50,MOLT-4 leukemia,1080 nM
same,TGI,MOLT-4 leukemia,4050 nM
same,GI50,NCI-H226 lung,3000 nM
same,TGI,NCI-H226 lung,6280 nM
same,GI50,NCI-H23 lung,2900 nM
same,TGI,NCI-H23 lung,5880 nM
same,GI50,NCI-H460 lung,899 nM
same,TGI,NCI-H460 lung,3430 nM
same,GI50,NCI-H522 lung,2420 nM
same,TGI,NCI-H522 lung,5330 nM
same,GI50,NCI/ADR-RES ovarian,3090 nM
same,TGI,NCI/ADR-RES ovarian,6150 nM
same,GI50,OVCAR-3 ovarian,678 nM
same,TGI,OVCAR-3 ovarian,2300 nM
same,GI50,OVCAR-4 ovarian,2220 nM
same,TGI,OVCAR-4 ovarian,5220 nM
same,GI50,OVCAR-5 ovarian,2820 nM
same,TGI,OVCAR-5 ovarian,5550 nM
same,GI50,OVCAR-8 ovarian,3620 nM
same,TGI,OVCAR-8 ovarian,7600 nM
same,GI50,PC-3 prostate,2750 nM
same,TGI,PC-3 prostate,6070 nM
same,GI50,RPMI-8226 leukemia,2180 nM
same,TGI,RPMI-8226 leukemia,8530 nM
same,GI50,RXF 393 renal,1090 nM
same,TGI,RXF 393 renal,3920 nM
same,GI50,SF-268 CNS,2800 nM
same,TGI,SF-268 CNS,5940 nM
same,GI50,SF-295 CNS,2490 nM
same,TGI,SF-295 CNS,5290 nM
same,GI50,SF-539 CNS,788 nM
same,TGI,SF-539 CNS,2850 nM
same,GI50,SK-MEL-2 melanoma,3330 nM
same,TGI,SK-MEL-2 melanoma,6330 nM
same,GI50,SK-MEL-28 melanoma,2490 nM
same,TGI,SK-MEL-28 melanoma,5070 nM
same,GI50,SK-MEL-5 melanoma,2570 nM
same,TGI,SK-MEL-5 melanoma,5200 nM
same,GI50,SK-OV-3 ovarian,3260 nM
same,TGI,SK-OV-3 ovarian,6190 nM
same,GI50,SN12C renal,2950 nM
same,TGI,SN12C renal,5720 nM
same,GI50,SNB-19 CNS,3200 nM
same,TGI,SNB-19 CNS,6060 nM
same,GI50,SNB-75 CNS,2130 nM
same,TGI,SNB-75 CNS,4660 nM
same,GI50,SR leukemia,523 nM
same,TGI,SR leukemia,1730 nM
same,GI50,SW-620 colon,982 nM
same,TGI,SW-620 colon,3620 nM
same,GI50,T-47D breast,1570 nM
same,TGI,T-47D breast,4980 nM
same,GI50,TK-10 renal,3380 nM
same,TGI,TK-10 renal,6360 nM
same,GI50,U251 CNS,2710 nM
same,TGI,U251 CNS,6000 nM
same,GI50,UACC-257 melanoma,3270 nM
same,TGI,UACC-257 melanoma,6420 nM
same,GI50,UACC-62 melanoma,2970 nM
same,TGI,UACC-62 melanoma,5730 nM
same,GI50,UO-31 renal,2740 nM
same,TGI,UO-31 renal,5400 nM
